The values below come from patent US5760036A, “Aminediol protease inhibitors” (E. R. Squibb & Sons, Inc., priority 1995, dated 1998).

Bounds are passed on as bounds.

The test system of assay [1] is RF strain of HIV (CEM-SS cells). As to the kind of experiment: Cell Culture Anti-HIV Activity (cell viability, formazan). The class given is cell-based. The following applies: Human immunodeficiency virus 1, CEM-SS, 144 h, CEM-SS cells, RF strain of HIV, multiplicity of infection 0.04, 6 days at 37° C., 450 nm; read-out: HIV (CEM Cells) IC50. The essentials: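 CEM-SS cells (5000/well) infected with HIV RF at MOI 0.04, exposed to half-log serial compound dilutions, incubated 6 days at 37° C. Viability read by tetrazolium reduction to formazan, absorbance 450 nm. IC50 is the concentration raising formazan in infected cells to 50% of uninfected, drug-free cells.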

In another assay the target is T1, HIV protease (Human immunodeficiency virus type 1 group M subtype B, UniProt P04585).
T1 construct: and purified protease
Nature of the assay: HIV Protease Assay. The class given is biochemical. The conditions noted are these: pH 5.5, 10 μM inhibitor, 4% DMSO, 450 μM substrate, pH 5.5, 30 minutes at 37° C., RP-HPLC; read-out: HIV Protease % Inhibition at 10 μM. The method in brief: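 Purified protease cleaved 450 μM octapeptide substrate in 50 mM sodium acetate pH 5.5 with 100 μg/ml BSA for 30 minutes at 37° C; product analyzed by reverse-phase HPLC at UV220 after H3PO4 quench. Inhibitors tested at final 10 μM with 4% DMSO.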

Turning to `CC(C)(C)OC(=O)N[C@@H](Cc1ccccc1)[C@H](O)CNC[C@@H](O)[C@H](Cc1ccc(OCCO)cc1)NC(=O)OC(C)(C)C` [Compound 209, [1S-[1R*,2S*(2S*,3R*)]]-[3[[-3-[[(1,1-Dimethylethoxy)carbonyl]amino]-2-hydroxy-4-[4-(2-hydroxyethoxy)phenyl]butyl]amino]-2-hydroxy-1-(phenylmethyl)propyl]-carbamic acid, 1,1-dimethylethyl ester], the IC50 in assay [1] was determined as 30 nM. In addition, at HIV protease, the inhibition at 10 µM came to 99%.
Turning to `CC(C)(C)OC(=O)N[C@@H](Cc1ccccc1)[C@H](O)CNC[C@@H](O)[C@H](Cc1ccccc1)NC(=O)OC(C)(C)CCCOCc1ccccc1` [Compound 210, [1S-(1R*,2S*)]-[Iminobis[2-hydroxy-1-(phenylmethyl)-3,1-propanediyl]]biscarbamic acid, 1,1-dimethylethyl-4-(phenylmethoxy)-1,1-dimethylbutyl ester], the half-maximal inhibitory concentration (IC50) in assay [1] was greater than 5000 nM. Also, the inhibition at 10 µM at HIV protease turned out to be 81%.
For `CC(C)(C)OC(=O)N[C@@H](Cc1ccccc1)[C@H](O)CNC[C@@H](O)[C@H](Cc1ccccc1)NC(=O)C(=O)C(C)(C)C` [Compound 213, [1S-[1R*,2S*(2S*,3R*)]]-[3-[[3-[(3,3-Dimethyl-1,2-dioxobutyl)amino]-2-hydroxy-4-phenylbutyl]amino]-2-hydroxy-1-(phenylmethyl)propyl]carbamic acid, 1,1-dimethylethyl ester], in that order: 170 nM and 98%.
For `CC(C)(C)OC(=O)N[C@@H](Cc1ccccc1)[C@H](O)CNC[C@@H](O)[C@H](Cc1ccccc1)NC(=O)C(O)C(C)(C)C` (stereo partly shown) [Compound 214] the same measures were 50 nM and 97%.
For `Cc1ccc(N(C)CCOc2ccc(C[C@H](NC(=O)OC(C)(C)C)[C@H](O)CNC[C@@H](O)[C@H](Cc3ccccc3)NC(=O)OC(C)(C)C)cc2)cc1` [Compound 217, [1S-[1R*,2S*(2S*,3R*)]]-[3-[[3-[[(1,1-Dimethylethoxy)carbonyl]amino]-2-hydroxy-4-[4-[2-methyl(4-methylphen-yl)amino]-ethoxyl]phenyl]butyl]amino]-2-hydroxy-1-(phenylmethyl) propyl]carbamic acid, 1,1-dimethylethyl ester], in that order: 480 nM and 100%.
Take `CC(C)[C@H](NC(=O)[C@@H](C)O)C(=O)N[C@@H](Cc1ccccc1)[C@H](O)CNC[C@@H](O)[C@H](Cc1ccccc1)NC(=O)OC(C)(C)C` [Compound 221, [1S-[[1R*,2S*(2S*,3R*)],N^2-(S*) ]]-N-[3-[[3-[[(1,1-Dimethylethoxy)carbonyl]amino]-2-hydroxy-4-phenylbutyl]amino]-2-hydroxy-1-(phenylmethyl)propyl]-N^2-(2-hydroxy-1-oxopropyl)-L-valinamide]: the IC50 in assay [1] stood at 1100 nM. For the same compound, the inhibition at 10 µM at HIV protease was 96%.
For `CC(C)(C)OC(=O)N[C@@H](Cc1ccccc1)[C@H](O)CNC[C@@H](O)[C@H](Cc1ccccc1)NC(=O)C1NC(=O)c2ccccc21` (stereo partly drawn) [Compound 223, [1S-[1R*,2S*(2S*,3R*)]]-[3-[[3-[[(2,3-Dihydro-3-oxo-1H-isoindol-1-yl)carbonyl]amino]-2-hydroxy-4-phenylbutyl]amino]-2-hydroxy-1-(phenylmethyl)propyl]carbamic acid, 1,1-dimethylethyl ester] the same measures were 1400 nM and 89%.
For `COCCOc1ccc(C[C@H](NC(=O)OC(C)(C)C)[C@H](O)CNC[C@@H](O)[C@H](Cc2ccccc2)NC(=O)OC(C)(C)C)cc1` [Compound 224, [1S-[1R*,2S*(2S*,3R*)]]-[3-[[3-[[(1,1-Dimethylethoxy)carbonyl]amino]-2-hydroxy-4-[4-(2-methoxyethoxy)phenyl]butyl]amino]-2-hydroxy-1-(phenylmethyl)propyl]carbamic acid, 1,1-dimethylethyl ester], in that order: 40 nM and 98%.

What is called IC50 is the concentration at which inhibition is half-maximal. A word on the inhibition: it is the relative decrease from the control value, in per cent.
